This is an account of results in patent US20110160303A1, “N-ALKYLCARBONYL-AMINO ACID ESTER AND N-ALKYLCARBONYL-AMINO LACTONE COMPOUNDS AND THEIR USE” (Edward Tak WEI, priority 2005, published 2011).

The subject of data set [1] is tongue. Conditions: Watson et al., filter paper on tongue, 6 subjects; cited from earlier work.
Data set [2] concerns periorbital skin. In words: Irritancy near the eyes, ointment applied to periorbital skin. The class given is in vivo, human. As to conditions: Table 1 summary. From the text: The ointment is also applied to the periorbital skin (upper and lower eyelids and on skin adjacent to the lateral canthus) for tests of irritancy near the eyes, and the subject is asked if irritation is present or absent. The intensity of the eye sensation is not rated. For tests of irritancy near the eyes, the ointment was applied to the periorbital skin (upper and lower eyelids and on skin adjacent to the lateral canthus), and the subject asked if irritation is present or absent. The intensity of the eye sensation is not rated, but just noted as being present or absent.

Data set [3] deals with oral cavity. Briefly: Oral cavity test, substance placed on dorsal surface of the tongue. The class given is in vivo, human.
In data set [4] the test system is skin above the upper lip. In words: Cooling sensation on facial skin, ointment applied to skin above the upper lip. Format: in vivo, human. Further details: key to refreshing cooling and absence of skin irritation or eye irritation (“perfect cool”): (*) denotes compounds with refreshing cooling and absence of skin irritation or eye irritation after facial skin or periorbital applications; a “perfect cool.”. Conditions: for Duration of Skin Cooling: 40 mM (1% wt/vol) ointment.

The test system of data set [5] is asthma cough. Briefly: Study 9: asthmatic cough, powder on the tongue. The class given is in vivo, human. As to conditions: continued use. The text has this: A person with a documented 31-year history of asthma attacks volunteered to test one of the compounds falling within Formula (1). They were extremely sensitive to agents such as tobacco smoke, dust, pollen, odors, down/woolen materials, house cleansing products, pets, and sudden change of air temperature, and reacted with violent coughing, mucus secretions, wheezing, choking, and shortness of breath. At the time of this trial, they were taking these medications for their condition: theophylline, Allegra®, Advair®, Intal®, and Singulair®. In 5 trials, during a coughing spree, they placed one to two mg of 95%+ pure powder of a D-Ala ethyl ester falling within Formula (1) ((R)-2-[((1R,2S,5R)-2-isopropyl-5-methyl-cyclohexanecarbonyl)-amino]-propionic acid ethyl ester)) on the mid-portion of their tongue. They reported a soothing and cool sensation with a slight taste similar to Eucalyptus oil in their mouth and throat. Coughing stopped after 3 to 5 minutes and breathing was normal. […] In three trials when the compound was applied at night, they slept through the night without being awakened by cough. Their spouse remarked that, in over 30 years of marriage, this was the first time that they had seen an effective medication for their cough. […]

The test system of data set [6] is cough. In words: Study 8: cough in cigar smokers, powder on the tongue. Format: in vivo, human. From the text:
Two males, were inveterate cigar smokers consuming 3 to 5 cigars per day. They both had frequent bouts of dry, non-productive, hacking coughs. At night, there were episodes of insomnia characterized by difficulties in breathing, an oppressive pressure on the chest and throat, and subsequent awakening with sensations of choking. During the day, a frequent and persistent sensation was that of tickling, irritative feelings in the back of the throat that led to coughing.
In 20 trials, 10 trials per subject, two mg of 95%+pure powder of a D-Ala ethyl compound falling within Formula (1) (R)-2-[((1R,2S,5R)-2-isopropyl-5-methyl-cyclohexanecarbonyl)-amino]-propionic acid ethyl ester) was placed on the mid-portion of the tongue of these two subjects. Both subjects reported relief from the desire to cough within 1 minute after application. Sensations of robust coolness in the back of the throat was noted and lasted for about 30 minutes. Applications of similar amounts of powdered sugar were not effective, but the placebo could be clearly distinguished from the active compound because of the absence of cooling sensations.
After application of test substance, the absence of irritation and itching at the back of the throat (cough signals) lasted for about 4 to 5 hours and the individual was observed not to cough for 6 to 8 hours. […] This therapeutic effect occurred when the test substance no longer elicited cooling sensations in the oropharynx.

Molecules are shown by their SMILES. Bounds are passed on as bounds.

In the case of `CC(C)[C@@H]1CC[C@@H](C)C[C@H]1O` [(−)-menthol, 1R-(1α-2β-5α)-5-methyl-2-(1-methylethyl)cyclohexanol, reference compound], the “average threshold for cooling on the tongue” value in data set [1] is 0.25 µg. Besides, the “Eye Irritancy” value in data set [2] is given as “yes”. For the same compound, the Cooling on tongue entry in data set [3] (Table 1 summary) was “yes”. In data set [4] (skin above upper lip), the “Duration of Skin Cooling” value was found to be 0.3 h. In data set [4] (Table 1 summary), the “Acts for >1 hour at 40 mM” value was “no”, the “Cooling on skin of face” value is recorded as “yes” and the ““perfect” cooling experience” value is on record as “no”.
For `CCOC(=O)[C@@H](C)NC(=O)[C@@H]1C[C@H](C)CC[C@H]1C(C)C` [D-Ala Et Ester, (R)-2-[((1R,2S,5R)-2-isopropyl-5-methyl-cyclohexanecarbonyl)-amino]-propionic acid ethyl ester], in data set [5], the “recurrence of asthmatic coughing attacks” value was “have not recurred with any severity for one month”. In data set [6] (after 4 or 6 applications within 2 days, continued smoking), the “time the desire to cough was removed” value is given as “at least 5 days”. The “duration of robust coolness in the back of the throat” value in data set [6] (two mg powder on tongue) is “about 30 minutes”. Further, the “time to relief from the desire to cough” value in data set [6] (two mg powder on tongue, 20 trials in 2 subjects) is not above 1 min. In addition, in data set [3] (dose of 1 to 2 mg, normal subjects), the “duration of cooling sensations on the tongue” value was “about 30 minutes”. In addition, the “Duration of Skin Cooling” value in data set [4] (skin above upper lip) is 2.4 h. Further, in data set [4] (40 mM (~1% wt/vol) Aquaphor ointment, 40 to 70 mg, skin above upper lip, time to reach 2 units of coolness), the “Duration of Action On-Off (minutes): On (onset)” value amounted to 1 min. In addition, the “Duration of Action On-Off (minutes): duration (offset minus onset)” value in data set [4] (40 mM Aquaphor ointment, skin above upper lip) is 142 min. Also, the “Duration of Action On-Off (minutes): Off (offset)” value in data set [4] (40 mM Aquaphor ointment, skin above upper lip, time when coolness drops below 2 units) worked out at 143 min. The “refreshing cooling and absence of skin irritation or eye irritation (“perfect cool”)” value in data set [4] (after facial skin or periorbital applications) is recorded as “D-Ala Et Ester (*)”.
